Data reported in patent US6335038B1, “Composition for the prevention and/or treatment of osteoporosis and alterations due to menopause syndrome” (Sigma-Tau Healthscience S.p.A., priority 1998, dated 2002).

Experiments:
[1] = Toxicological tests, single-dose administration, rats; conditions: single dose: carnitine mixture 600 mg/kg, propionyl L-carnitine 600 mg/kg, soy extract (5% isoflavones) 5 g/kg, genistein 15 mg/kg
[2] = Toxicological tests, single-dose administration, mice; conditions: single dose: carnitine mixture 600 mg/kg, propionyl L-carnitine 600 mg/kg, soy extract (5% isoflavones) 5 g/kg, genistein 15 mg/kg
[3] = test system: MC3T3 osteoblast-like cells; assay: Osteoblastic cell growth tests; assay type: cell-based, mouse; conditions: 72-hour incubation; 0.05 mM carnitine, 0.005 mM isoflavones or genistein; versus controls
Protocol: In view of the important role played by osteoblasts in regulating growth and in bone remodelling, a series of tests was conducted to evaluate whether the presence of carnitines or isoflavonoids and genistein could influence the growth of osteoblastic cells in vitro.

serum osteocalcin = assay: Evaluation of changes in serum osteocalcin concentration; assay type: in vivo, mice; conditions: for Osteocalcin, serum concentration: mice aged at least 7 months, daily with diet; for effect on serum osteocalcin concentrations (in words): mice, versus control animals
Protocol: There is a close correlation between changes in plasma levels of osteocalcin and bone tissue osteoblast activity, and a reduction in osteocalcin plasma levels is an indicator of […] osteoblast activity which appears to underlie osteoporosis in elderly subjects or in the postmenopausal period in women. These tests were performed on a batch of mice aged at least 7 months, divided into various groups of 10 mice each.
The treatment was administered daily for thirty days or sixty days consecutively.

[4] = test system: prostacyclin synthesis in rat peritoneal macrophages; assay: Prostacyclin synthesis tests (PGI2 release by peritoneal macrophages from treated rats); assay type: in vivo; conditions: for effect on PGI2 synthesis in macrophages (in words): rats treated seven days, versus controls; for Macrophage PGI2 release values compared with controls: rats treated with diet for seven days (carnitine mixture 400 mg/kg, propionyl L-carnitine 400 mg/kg, soy extract 8 g/kg, genistein 40 mg/kg), carrageenin i.p. day 1, controls 0.25 ± 0.03
Protocol: The method used in these tests was the one described by G. R. Elliot in Brit. J. Nutrition, 64, 497, 1990, measuring the release of prostaglandins by peritoneal macrophages isolated from a batch of rats that were administered either the carnitine mixture, or the soy extract, or propionyl L-carnitine, or genistein, or various combinations of these products with their diet for seven days consecutively. The doses given were 400 mg/kg of carnitine mixture, or 400 mg/kg of propionyl L-carnitine, or 8 g/kg of soy extract, or 40 mg/kg of genistein, or the same doses of the various products combined. On day 1 of treatment, all the animals were treated intraperitoneally with 2 cm^3 of solution containing 2 mg of carrageenin. After the last day of treatment, peritoneal macrophages were isolated from the controls and treated rats so as to obtain a […] cell suspension.
One cm^3 of the macrophage preparation thus prepared was incubated for a period of two hours in order to evaluate the basal release or release after 30 minutes after being placed in contact with an ionophore such as […]. The cells were centrifuged and the supernatant analysed for its PGI2 content according to the radioimmunological assay method described by Zijstra et al. (Zijstra, F. J., Vincent, J. E., J. Chromatography, 311, 39, 1984).

[5] = duration of treatment 30 days, controls 120.4 ± 8.6
[6] = duration of treatment 60 days, controls 90.5 ± 7.9

## O=c1c(-c2ccc(O)cc2)coc2cc(O)cc(O)c12 [Genistein, 4′,5,7-trihydroxyisoflavone]
[1]
  mortality or evident signs of toxicity after single dose: without any mortality or evident signs of toxicity
[2]
  mortality or evident signs of toxicity after single dose: without any mortality or evident signs of toxicity
[3]
  effect on growth of osteoblastic cells (in words): neither the isoflavones nor genistein appear to influence the normal growth rate of the cells
Serum osteocalcin; [5]
  Osteocalcin, serum concentration: 135.9 ± 10.2 ng/mL
Serum osteocalcin; [6]
  Osteocalcin, serum concentration: 100.1 ± 10.2 ng/mL
Serum osteocalcin
  effect on serum osteocalcin concentrations (in words): capable of increasing the serum osteocalcin concentrations
[4]
  effect on PGI2 synthesis in macrophages (in words): only modest
  Macrophage PGI2 release values compared with controls: 0.39 ± 0.27 ng/2 × 10^−6 cells

## CCC(=O)O[C@H](CC(=O)[O-])C[N+](C)(C)C [Propionyl L-carnitine, propionyl L-carnitine]
[1]
  mortality or evident signs of toxicity after single dose: without any mortality or evident signs of toxicity
[2]
  mortality or evident signs of toxicity after single dose: without any mortality or evident signs of toxicity
[3]
  effect on growth of osteoblastic cells (in words): modest effect on the growth of cells
Serum osteocalcin; [5]
  Osteocalcin, serum concentration: 130.7 ± 10.1 ng/mL
Serum osteocalcin; [6]
  Osteocalcin, serum concentration: 98.5 ± 8.1 ng/mL
Serum osteocalcin
  effect on serum osteocalcin concentrations (in words): capable of increasing the serum osteocalcin concentrations
[4]
  effect on PGI2 synthesis in macrophages (in words): increase in PGI2 synthesis
  Macrophage PGI2 release values compared with controls: 3.0 ± 0.22 ng/2 × 10^−6 cells
